# Measured values from US20260248881A1, “PHARMACEUTICAL COMPOSITION COMPRISING FOXM1 INHIBITOR AND IMMUNE CHECKPOINT INHIBITOR FOR PREVENTING OR TREATING CANCER” (National Cancer Center, priority 2022, published 2026).
# Experiments:
# FOXM1 and PD-L1 = FOXM1 and PD-L1 expression in MC38 cells (immunoblotting, confocal imaging); type: cell-based, mouse
# Protocol: Human colorectal cancer cell lines (HCT116, HCT8, and SW480) and human primary coronary artery smooth muscle cells (SMCs) were purchased from the American Type Culture Collection (Manassas, VA, USA), and a MC38 mouse colorectal adenocarcinoma cell line was provided by Dr. Beom-Kyu Choi (National Cancer Center, Goyang, Republic of Korea). MC38 cells were cultured in Dulbecco's modified Eagle's medium (DMEM) supplemented with 10% FBS and 1% penicillin/streptomycin. SW480 and HCT8 cells were cultured in Roswell Park Memorial Institute (RPMI) medium supplemented with 10% FBS and 1% penicillin/streptomycin. […]
# For immunoblotting analysis, protein concentrations were measured using a bicinchoninic acid kit (Cat. 23225; Thermo Fisher Scientific, Carlsbad, CA, USA). […] The appropriate secondary antibodies conjugated to horseradish peroxidase were bound to the washed membrane, and protein bands were detected using a chemiluminescence kit (Thermo Fisher Scientific, Carlsbad, CA, USA).
# To confirm the dose-dependent downregulation of PD-L1 levels by TST, which is a FOXM1 inhibitor, live cell imaging was performed on PD-L1 expression in MC38 cells. […] Fluorescence images of nuclei (λex 359 nm, λem 457 nm) and PD-L1 (λex 590 nm, λem 618 nm) were obtained using a confocal scanning laser microscope (LSM780; Carl Zeiss, Oberkochen, Germany).
# FOXM1 = molecular target: T1, FOXM1 (Homo sapiens, UniProt Q08050); experiment: FOXM1 inhibitors tested in H1299 and PC9 cells (FOXM1 levels); type: cell-based
# T1 construct: host or cells: H1299 and PC9 cells
# T1 sequence (Q08050 1-763): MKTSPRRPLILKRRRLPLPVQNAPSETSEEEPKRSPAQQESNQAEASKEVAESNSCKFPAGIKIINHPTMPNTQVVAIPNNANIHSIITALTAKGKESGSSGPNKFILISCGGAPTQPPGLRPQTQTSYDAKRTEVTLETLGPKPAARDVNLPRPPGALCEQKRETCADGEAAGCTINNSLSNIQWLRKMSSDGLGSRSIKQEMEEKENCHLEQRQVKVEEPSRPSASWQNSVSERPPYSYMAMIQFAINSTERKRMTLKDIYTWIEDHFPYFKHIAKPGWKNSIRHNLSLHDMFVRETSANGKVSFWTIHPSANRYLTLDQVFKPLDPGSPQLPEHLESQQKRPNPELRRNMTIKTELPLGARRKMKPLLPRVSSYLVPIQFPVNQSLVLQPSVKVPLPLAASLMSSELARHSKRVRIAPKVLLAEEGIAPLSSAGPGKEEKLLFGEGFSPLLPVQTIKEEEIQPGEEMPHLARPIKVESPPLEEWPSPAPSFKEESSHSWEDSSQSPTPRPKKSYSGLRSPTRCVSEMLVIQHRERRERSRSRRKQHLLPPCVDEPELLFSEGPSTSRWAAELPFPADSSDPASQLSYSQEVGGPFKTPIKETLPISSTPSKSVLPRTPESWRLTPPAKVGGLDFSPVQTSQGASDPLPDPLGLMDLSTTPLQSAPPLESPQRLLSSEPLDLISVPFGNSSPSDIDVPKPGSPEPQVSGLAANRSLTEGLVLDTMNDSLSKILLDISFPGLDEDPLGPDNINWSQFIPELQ
# Protocol: H1299 and PC9 cells purchased from ATCC (Manassas, VA, USA) were cultured in RPMI-1640 medium (#10-040-CV; Corning, New York, NY, USA) supplemented with 10% […] (#35-010-CV; Corning) and penicillin-streptomycin antibiotic cocktail (#15240062; Thermo Fisher Scientific, Waltham, MA, USA) at 37° C. and 5% CO2.
# Total RNA was extracted and purified using the RNeasy kit (#74004; QIAGEN) according to the manufacturer's protocol. Reverse transcription of mRNA was performed using a PrimeScript 1st Strand CDNA Synthesis Kit (#6110A; TaKaRa Bio, Otsu, Japan). Quantitative PCR was performed using primers specific for the CD274 and FOXM1 genes designed using Primer 3 software. A β-actin gene was used as an internal control group to normalize target gene expression.
substance,measurement,setting,value
thiostrepton [TST],level of PD-L1 in the plasma membrane,"FOXM1 and PD-L1; MC38, TST 0, 1, 5, and 10 μM, 48 hours",dose-dependently decreased
same,FOXM1 and PD-L1 expression levels,FOXM1 and PD-L1; MC38 mouse colorectal cancer cells,dose-dependently decreased
same,FOXM1 levels,FOXM1,"the most effective inhibitor, significantly reducing FOXM1 levels"
